Laboratory results from ChEMBL document CHEMBL4373744, “Modifying the lipophilic part of phenylthiazole antibiotics to control their drug-likeness” (Eur J Med Chem, 2020).
≈ marks a conversion by molar mass, not a printed value.

How the values were obtained:
[1] = tested on: Staphylococcus aureus; assay: Antimicrobial activity against vancomycin-resistant Staphylococcus aureus 12 by broth liquid microdilution method; format: functional
[2] = tested on: Enterococcus faecalis; assay: microbe, parasite or virus in culture; conditions: ATCC 51299
[3] = tested on: Staphylococcus aureus; assay: microbe, parasite or virus in culture; conditions: NRS119
Description: Antimicrobial activity against methicillin-resistant Staphylococcus aureus NRS119 by broth liquid microdilution method

[4] = tested on: Staphylococcus aureus; assay: microbe, parasite or virus in culture; conditions: NRS 385
Description: Antimicrobial activity against methicillin-resistant Staphylococcus aureus NRS 385 by broth liquid microdilution method

[5] = tested on: Staphylococcus aureus; assay: microbe, parasite or virus in culture; conditions: NRS123
Description: Antimicrobial activity against methicillin-resistant Staphylococcus aureus NRS123 by broth liquid microdilution method

[6] = tested on: Listeria monocytogenes; assay: Antimicrobial activity against Listeria monocytogenes ATCC 19111 by broth liquid microdilution method; format: functional
[7] = tested on: Staphylococcus epidermidis; assay: Antimicrobial activity against methicillin-resistant Staphylococcus epidermidis NRS101 by broth liquid microdilution method; format: functional
[8] = tested on: Staphylococcus aureus; assay: microbe, parasite or virus in culture; conditions: ATCC 6538
Description: Antimicrobial activity against methicillin-sensitive Staphylococcus aureus ATCC 6538 by broth liquid microdilution method

[9] = tested on: Staphylococcus aureus; assay: microbe, parasite or virus in culture; conditions: NRS384
Description: Antimicrobial activity against methicillin-resistant Staphylococcus aureus NRS384 by broth liquid microdilution method

[10] = tested on: Staphylococcus aureus; assay: microbe, parasite or virus in culture; conditions: NRS 107
Description: Antimicrobial activity against methicillin-sensitive Staphylococcus aureus NRS 107 by broth liquid microdilution method

[11] = tested on: Enterococcus faecium; assay: Antimicrobial activity against vancomycin-resistant Enterococcus faecium ATCC 700221 by broth liquid microdilution method; format: functional
[12] = tested on: Staphylococcus aureus; assay: microbe, parasite or virus in culture; conditions: NRS 386
Description: Antimicrobial activity against methicillin-resistant Staphylococcus aureus NRS 386 by broth liquid microdilution method

[13] = tested on: Staphylococcus aureus; assay: Antimicrobial activity against vancomycin-resistant Staphylococcus aureus 10 by broth liquid microdilution method; format: functional
[14] = tested on: Streptococcus pneumoniae; assay: Antimicrobial activity against cephalosporin-resistant Streptococcus pneumoniae ATCC 51916 by broth liquid microdilution method; format: functional
[15] = tested on: Streptococcus pneumoniae; assay: Antimicrobial activity against methicillin-resistant Streptococcus pneumoniae ATCC 700677 by broth liquid microdilution method; format: functional
[16] = tested on: Escherichia coli; assay: Antimicrobial activity against Escherichia coli BW25113 by broth liquid microdilution method; format: functional
[17] = tested on: Escherichia coli; assay: Antimicrobial activity against Escherichia coli JW55031 harboring deltatolC mutant by broth liquid microdilution method; format: functional

## CC(=O)NC[C@H]1CN(c2ccc(N3CCOCC3)c(F)c2)C(=O)O1 [LINEZOLID]
[1]
  MBC: 64 µg/mL (≈ 190 µM)
  MIC: 1 µg/mL (≈ 2.96 µM)
[2]
  MBC: 16 µg/mL (≈ 47.4 µM)
[3]
  MBC: > 64 µg/mL
  MIC: 64 µg/mL (≈ 190 µM)
[4]
  MBC: 32 µg/mL (≈ 94.9 µM)
  MIC: 1 µg/mL (≈ 2.96 µM)
[5]
  MBC: 32 µg/mL (≈ 94.9 µM)
  MIC: 1 µg/mL (≈ 2.96 µM)
[6]
  MBC: 16 µg/mL (≈ 47.4 µM)
  MIC: ≤ 0.5 µg/mL
[7]
  MBC: 16 µg/mL (≈ 47.4 µM)
  MIC: 1 µg/mL (≈ 2.96 µM)
[8]
  MBC: 16 µg/mL (≈ 47.4 µM)
  MIC: 1 µg/mL (≈ 2.96 µM)
[9]
  MBC: 32 µg/mL (≈ 94.9 µM)
  MIC: 1 µg/mL (≈ 2.96 µM)
[10]
  MBC: 64 µg/mL (≈ 190 µM)
  MIC: 1 µg/mL (≈ 2.96 µM)
[11]
  MBC: 16 µg/mL (≈ 47.4 µM)
  MIC: 1 µg/mL (≈ 2.96 µM)
[12]
  MBC: 64 µg/mL (≈ 190 µM)
[13]
  MBC: > 64 µg/mL
  MIC: 1 µg/mL (≈ 2.96 µM)
[14]
  MBC: 32 µg/mL (≈ 94.9 µM)
[15]
  MBC: 16 µg/mL (≈ 47.4 µM)

## C/C(=N\NC(=N)N)c1sc(-c2ccc(OCCCN3CCOCC3)cc2)nc1C
[16]
  MIC: > 64 µg/mL
[17]
  MIC: > 64 µg/mL
[9]
  MIC: 64 µg/mL (≈ 154 µM)

## C/C(=N\NC(=N)N)c1sc(-c2ccc(C#CCCN3CCCC(C)C3)cc2)nc1C (stereo not drawn)
[16]
  MIC: > 64 µg/mL
[17]
  MIC: 64 µg/mL (≈ 151 µM)
[9]
  MIC: 8 µg/mL (≈ 18.9 µM)

## C/C(=N\NC(=N)N)c1sc(-c2ccc(C#CCCN3CCCC3)cc2)nc1C
[16]
  MIC: > 64 µg/mL
[17]
  MIC: > 64 µg/mL
[9]
  MIC: 16 µg/mL (≈ 40.6 µM)

## C/C(=N\NC(=N)N)c1sc(-c2ccc(C#CCCN3CCN(C)CC3)cc2)nc1C
[16]
  MIC: > 64 µg/mL
[17]
  MIC: 32 µg/mL (≈ 75.5 µM)
[9]
  MIC: 16 µg/mL (≈ 37.8 µM)

## C/C(=N\NC(=N)N)c1sc(-c2ccc(OCCCCN3CCC3)cc2)nc1C
[16]
  MIC: > 64 µg/mL
[17]
  MIC: 16 µg/mL (≈ 39.9 µM)
[9]
  MIC: 8 µg/mL (≈ 20 µM)

## C/C(=N\NC(=N)N)c1sc(-c2ccc(OCCCCN3CCSCC3)cc2)nc1C
[16]
  MIC: > 64 µg/mL
[17]
  MIC: > 64 µg/mL
[9]
  MIC: > 64 µg/mL

## C/C(=N\NC(=N)N)c1sc(-c2ccc(OCCCN3CCCCCC3)cc2)nc1C
[16]
  MIC: > 64 µg/mL
[17]
  MIC: > 64 µg/mL
[9]
  MIC: 64 µg/mL (≈ 149 µM)

## C/C(=N\NC(=N)N)c1sc(-c2ccc(OCCCN3CCCCC3C)cc2)nc1C (stereo not drawn)
[16]
  MIC: > 64 µg/mL
[17]
  MIC: > 64 µg/mL
[9]
  MIC: 64 µg/mL (≈ 149 µM)

## C/C(=N\NC(=N)N)c1sc(-c2ccc(OCCCN3CCC4CCCCC4C3)cc2)nc1C (stereo not drawn)
[16]
  MIC: > 64 µg/mL
[17]
  MIC: > 64 µg/mL
[9]
  MIC: 64 µg/mL (≈ 137 µM)

## C/C(=N\NC(=N)N)c1sc(-c2ccc(OCCCN3CCC3)cc2)nc1C
[16]
  MIC: > 64 µg/mL
[17]
  MIC: 64 µg/mL (≈ 166 µM)
[9]
  MIC: 8 µg/mL (≈ 20.7 µM)

## C/C(=N\NC(=N)N)c1sc(-c2ccc(OCCCN3CCCC(C)C3)cc2)nc1C (stereo not drawn)
[16]
  MIC: > 64 µg/mL
[17]
  MIC: > 64 µg/mL
[9]
  MIC: 64 µg/mL (≈ 149 µM)

## C/C(=N\NC(=N)N)c1sc(-c2ccc(OCCCN3CCCC3)cc2)nc1C
[16]
  MIC: > 64 µg/mL
[17]
  MIC: 32 µg/mL (≈ 79.9 µM)
[9]
  MIC: 16 µg/mL (≈ 39.9 µM)

## C/C(=N\NC(=N)N)c1sc(-c2ccc(C#CCCN3CCCCC3)cc2)nc1C
[16]
  MIC: > 64 µg/mL
[17]
  MIC: 32 µg/mL (≈ 78.3 µM)
[9]
  MIC: 8 µg/mL (≈ 19.6 µM)

## C/C(=N\NC(=N)N)c1sc(-c2ccc(C#CCCN3CCCCCC3)cc2)nc1C
[16]
  MIC: > 64 µg/mL
[17]
  MIC: 64 µg/mL (≈ 151 µM)
[9]
  MIC: 8 µg/mL (≈ 18.9 µM)

## C/C(=N\NC(=N)N)c1sc(-c2ccc(OCCCN3CCC(C)CC3)cc2)nc1C
[16]
  MIC: > 64 µg/mL
[17]
  MIC: > 64 µg/mL
[9]
  MIC: > 64 µg/mL

## C/C(=N\NC(=N)N)c1sc(-c2ccc(OCCCCCN3CCCCC3)cc2)nc1C
[16]
  MIC: > 64 µg/mL
[17]
  MIC: 16 µg/mL (≈ 36.1 µM)
[9]
  MIC: 16 µg/mL (≈ 36.1 µM)

## C/C(=N\NC(=N)N)c1sc(-c2ccc(C#CCCN3CCSCC3)cc2)nc1C
[16]
  MIC: > 64 µg/mL
[17]
  MIC: 16 µg/mL (≈ 37.5 µM)
[9]
  MIC: 32 µg/mL (≈ 75 µM)

## C/C(=N\NC(=N)N)c1sc(-c2ccc(OCCCN3CCCCC3)cc2)nc1C
[16]
  MIC: > 64 µg/mL
[17]
  MIC: 64 µg/mL (≈ 154 µM)
[9]
  MIC: 32 µg/mL (≈ 77.2 µM)

## C/C(=N\NC(=N)N)c1sc(-c2ccc(OCCCCCN3CCOCC3)cc2)nc1C
[16]
  MIC: > 64 µg/mL
[17]
  MIC: 32 µg/mL (≈ 72 µM)
[9]
  MIC: 32 µg/mL (≈ 72 µM)

## C/C(=N\NC(=N)N)c1sc(-c2ccc(OCCCN3CCSC3)cc2)nc1C
[16]
  MIC: > 64 µg/mL
[17]
  MIC: 32 µg/mL (≈ 76.4 µM)
[9]
  MIC: 16 µg/mL (≈ 38.2 µM)

## C/C(=N\NC(=N)N)c1sc(-c2ccc(OCCCCn3ccnc3)cc2)nc1C
[16]
  MIC: > 64 µg/mL
[17]
  MIC: 32 µg/mL (≈ 77.8 µM)
[9]
  MIC: 16 µg/mL (≈ 38.9 µM)

## C/C(=N\NC(=N)N)c1sc(-c2ccc(C#CCCN3CCOCC3)cc2)nc1C
[16]
  MIC: > 64 µg/mL
[17]
  MIC: 64 µg/mL (≈ 156 µM)
[9]
  MIC: 32 µg/mL (≈ 77.9 µM)

## C/C(=N\NC(=N)N)c1sc(-c2ccc(OCCCCN3CCCC(C)C3)cc2)nc1C (stereo not drawn)
[16]
  MIC: > 64 µg/mL
[17]
  MIC: > 64 µg/mL
[9]
  MIC: > 64 µg/mL

## C/C(=N\NC(=N)N)c1sc(-c2ccc(OCCCCCN3CCC4CCCCC4C3)cc2)nc1C (stereo not drawn)
[16]
  MIC: > 64 µg/mL
[17]
  MIC: > 64 µg/mL
[9]
  MIC: > 64 µg/mL
